According to ChEMBL document CHEMBL3232945 (Eur J Med Chem, 2014):

Columns and labels:
Rattus norvegicus [1] = test: Toxicity in […] normotensive Wistar rat assessed as mean arterial pressure at 40 mg/kg, ip after 60 mins (reference value: 95.07 +/- 1.973 mmHg); format: organism-based, Artery; design: dose 40 mg/kg, route intraperitoneal; settings: in vivo, 1 h
Rattus norvegicus [2] = test: Antihypertensive activity in Wistar rat assessed as mean arterial pressure at 40 mg/kg, ip measured immediately at 0 min (reference value: 194.08 +/- 1.962 mmHg); format: functional, Artery; settings: route intraperitoneal
Rattus norvegicus [3] = test: Antihypertensive activity in Wistar rat assessed as mean arterial pressure at 40 mg/kg, ip after 15 mins (reference value: 195.68 +/- 1.623 mmHg); format: functional, Artery; settings: route intraperitoneal
Rattus norvegicus [4] = test: Antihypertensive activity in Wistar rat assessed as mean arterial pressure at 40 mg/kg, ip after 30 mins (reference value: 194.72 +/- 1.002 mmHg); format: functional, Artery; settings: route intraperitoneal
Rattus norvegicus [5] = test: Antihypertensive activity in Wistar rat assessed as mean arterial pressure at 40 mg/kg, ip after 45 mins (reference value: 193.96 +/- 0.865 mmHg); format: functional, Artery; settings: route intraperitoneal
Rattus norvegicus [6] = test: Antihypertensive activity in Wistar rat assessed as mean arterial pressure at 40 mg/kg, ip after 60 mins (reference value: 195.11 +/- 0.531 mmHg); format: functional, Artery; settings: route intraperitoneal
Rattus norvegicus [7] = test: Toxicity in anesthetized-normotensive Wistar rat assessed as heart rate at 40 mg/kg, ip measured immediately at 0 min (reference value: 316.62 +/- 9.643 bpm); format: organism-based; design: dose 40 mg/kg, route intraperitoneal; settings: in vivo, 0 h
Rattus norvegicus [8] = test: Toxicity in anesthetized-normotensive Wistar rat assessed as heart rate at 40 mg/kg, ip after 15 mins (reference value: 313.93 +/- 9.912 bpm); format: organism-based; design: dose 40 mg/kg, route intraperitoneal; settings: in vivo, 0.25 h
Rattus norvegicus [9] = test: Toxicity in anesthetized-normotensive Wistar rat assessed as heart rate at 40 mg/kg, ip after 30 mins (reference value: 317.68 +/- 7.631 bpm); format: organism-based; design: dose 40 mg/kg, route intraperitoneal; settings: in vivo, 0.5 h
Rattus norvegicus [10] = test: Toxicity in anesthetized-normotensive Wistar rat assessed as heart rate at 40 mg/kg, ip after 45 mins (reference value: 316.82 +/- 8.452 bpm); format: organism-based; design: dose 40 mg/kg, route intraperitoneal; settings: in vivo, 0.75 h
Rattus norvegicus [11] = test: Toxicity in anesthetized-normotensive Wistar rat assessed as heart rate at 40 mg/kg, ip after 60 mins (reference value: 314.96 +/- 9.442 bpm); format: organism-based; design: dose 40 mg/kg, route intraperitoneal; settings: in vivo, 1 h
Rattus norvegicus [12] = test: Antiarrhythmic activity in barium chloride-induced Wistar rat assessed as increase in appearance time of arrhythmia at 40 mg/kg, ip administered 60 mins before barium chloride challenge (reference value: 129.4 +/- 4.373 sec); format: functional, Heart; settings: route intraperitoneal
Rattus norvegicus [13] = test: Antiarrhythmic activity in barium chloride-induced Wistar rat assessed as increase in mortality time at 40 mg/kg, ip administered 60 mins before barium chloride challenge (reference value: 682.8 +/- 9.656 secs); format: functional, Heart; settings: route intraperitoneal
Rattus norvegicus [14] = test: Toxicity in anaesthetized-Wistar rat assessed as P-Q ECG interval at 40 mg/kg, ip measured immediately at 0 min (reference value: 52.4 +/- 0.927 ms); format: organism-based; design: dose 40 mg/kg, route intraperitoneal; settings: in vivo, 0 h
Rattus norvegicus [15] = test: Toxicity in anaesthetized-Wistar rat assessed as QRS ECG interval at 40 mg/kg, ip measured immediately at 0 min (reference value: 19.6 +/- 1.142 ms); format: organism-based; design: dose 40 mg/kg, route intraperitoneal; settings: in vivo, 0 h
Rattus norvegicus [16] = test: Toxicity in anaesthetized-Wistar rat assessed as Q-T ECG interval at 40 mg/kg, ip measured immediately at 0 min (reference value: 78.8 +/- 1.030 ms); format: organism-based; design: dose 40 mg/kg, route intraperitoneal; settings: in vivo, 0 h
Rattus norvegicus [17] = test: Toxicity in anaesthetized-Wistar rat assessed as P-Q ECG interval at 40 mg/kg, ip after 15 mins (reference value: 52.2 +/- 1.158 ms); format: organism-based; design: dose 40 mg/kg, route intraperitoneal; settings: in vivo, 0.25 h
Rattus norvegicus [18] = test: Toxicity in anaesthetized-Wistar rat assessed as QRS ECG interval at 40 mg/kg, ip after 15 mins (reference value: 18.9 +/- 1.563 ms); format: organism-based; design: dose 40 mg/kg, route intraperitoneal; settings: in vivo, 0.25 h
Rattus norvegicus [19] = test: Toxicity in anaesthetized-Wistar rat assessed as Q-T ECG interval at 40 mg/kg, ip after 15 mins (reference value: 79.4 +/- 1.270 ms); format: organism-based; design: dose 40 mg/kg, route intraperitoneal; settings: in vivo, 0.25 h
Rattus norvegicus [20] = test: Toxicity in anaesthetized-Wistar rat assessed as P-Q ECG interval at 40 mg/kg, ip after 30 mins (reference value: […] +/- 0.927 ms); format: organism-based; design: dose 40 mg/kg, route intraperitoneal; settings: in vivo, 0.5 h
Rattus norvegicus [21] = test: Toxicity in anaesthetized-Wistar rat assessed as QRS ECG interval at 40 mg/kg, ip after 30 mins (reference value: 19.9 +/- 1.393 ms); format: organism-based; design: dose 40 mg/kg, route intraperitoneal; settings: in vivo, 0.5 h
Rattus norvegicus [22] = test: Toxicity in anaesthetized-Wistar rat assessed as Q-T ECG interval at 40 mg/kg, ip after 30 mins (reference value: 78.3 +/- 0.860 ms); format: organism-based; design: dose 40 mg/kg, route intraperitoneal; settings: in vivo, 0.5 h
Rattus norvegicus [23] = test: Toxicity in anaesthetized-Wistar rat assessed as P-Q ECG interval at 40 mg/kg, ip after 45 mins (reference value: 52.5 +/- 0.780 ms); format: organism-based; design: dose 40 mg/kg, route intraperitoneal; settings: in vivo, 0.75 h
Rattus norvegicus [24] = test: Toxicity in anaesthetized-Wistar rat assessed as QRS ECG interval at 40 mg/kg, ip after 45 mins (reference value: 20.2 +/- 1.348 ms); format: organism-based; design: dose 40 mg/kg, route intraperitoneal; settings: in vivo, 0.75 h
Rattus norvegicus [25] = test: Toxicity in anaesthetized-Wistar rat assessed as P-Q ECG interval at 40 mg/kg, ip after 60 mins (reference value: […] +/- 0.924 ms); format: organism-based; design: dose 40 mg/kg, route intraperitoneal; settings: in vivo, 1 h
Rattus norvegicus [26] = test: Toxicity in anaesthetized-Wistar rat assessed as QRS ECG interval at 40 mg/kg, ip after 60 mins (reference value: 19.3 +/- 0.873 ms); format: organism-based; design: dose 40 mg/kg, route intraperitoneal; settings: in vivo, 1 h
Rattus norvegicus [27] = test: Toxicity in anaesthetized-Wistar rat assessed as Q-T ECG interval at 40 mg/kg, ip after 60 mins (reference value: 79.7 +/- 0.965 ms); format: organism-based; design: dose 40 mg/kg, route intraperitoneal; settings: in vivo, 1 h
Rattus norvegicus [28] = test: Toxicity in […] normotensive Wistar rat assessed as mean arterial pressure at 40 mg/kg, ip measured immediately at 0 min (reference value: 94.21 +/- 2.065 mmHg); format: organism-based, Artery; design: dose 40 mg/kg, route intraperitoneal; settings: in vivo, 0 h
Rattus norvegicus [29] = test: Toxicity in […] normotensive Wistar rat assessed as mean arterial pressure at 40 mg/kg, ip after 15 mins (reference value: 93.81 +/- 1.543 mmHg); format: organism-based, Artery; design: dose 40 mg/kg, route intraperitoneal; settings: in vivo, 0.25 h
Rattus norvegicus [30] = test: Toxicity in […] normotensive Wistar rat assessed as mean arterial pressure at 40 mg/kg, ip after 30 mins (reference value: 94.68 +/- 1.213 mmHg); format: organism-based, Artery; design: dose 40 mg/kg, route intraperitoneal; settings: in vivo, 0.5 h
Rattus norvegicus [31] = test: Toxicity in […] normotensive Wistar rat assessed as mean arterial pressure at 40 mg/kg, ip after 45 mins (reference value: 94.83 +/- 0.943 mmHg); format: organism-based, Artery; design: dose 40 mg/kg, route intraperitoneal; settings: in vivo, 0.75 h

Row | SMILES | Activity (Rattus norvegicus [1]) [mmHg] | Activity (Rattus norvegicus [2]) [mmHg] | Activity (Rattus norvegicus [3]) [mmHg] | Activity (Rattus norvegicus [4]) [mmHg] | Activity (Rattus norvegicus [5]) [mmHg] | Activity (Rattus norvegicus [6]) [mmHg] | Activity (Rattus norvegicus [7]) [bpm] | Activity (Rattus norvegicus [8]) [bpm] | Activity (Rattus norvegicus [9]) [bpm] | Activity (Rattus norvegicus [10]) [bpm] | Activity (Rattus norvegicus [11]) [bpm] | Time (Rattus norvegicus [12]) [s] | Time (Rattus norvegicus [13]) [s] | Activity (Rattus norvegicus [14]) [ms] | Activity (Rattus norvegicus [15]) [min] | Activity (Rattus norvegicus [16]) [min] | Activity (Rattus norvegicus [17]) [min] | Activity (Rattus norvegicus [18]) [min] | Activity (Rattus norvegicus [19]) [min] | Activity (Rattus norvegicus [20]) [min] | further results
1 | CCCCN(CCCC)CC(O)CN1C(=O)/C(=C\c2ccccc2)S/C1=N\c1ccccc1 (configuration not stated) | 90.59 | 195.08 | 171.43 | 159.69 | 163.37 | 182.09 | 309.12 | 297.25 | 276.46 | 283.5 | 301.69 | 265.4 | 786.2 | 53.5 | 20.4 | 67 | 55 | 21.6 | 67.9 | 56.1 | Activity (Rattus norvegicus [21]): 22 ms; Activity (Rattus norvegicus [22]): 68.9 min; Activity (Rattus norvegicus [23]): 57.3 min; Activity (Rattus norvegicus [24]): 22.4 min; Activity (Rattus norvegicus [25]): 54.3 min; Activity (Rattus norvegicus [26]): 22.6 min; Activity (Rattus norvegicus [27]): 66.4 ms; Activity (Rattus norvegicus [28]): 95.56 mmHg; Activity (Rattus norvegicus [29]): 84.43 mmHg; Activity (Rattus norvegicus [30]): 77.87 mmHg; Activity (Rattus norvegicus [31]): 80.16 mmHg
2 | O=C1/C(=C\c2ccccc2)S/C(=N\c2ccccc2)N1CC(O)CN1CCOCC1 (configuration not stated) | 71.43 | 195.43 | 175.31 | 168.61 | 131.61 | 154.93 | 315.15 | 304.65 | 293.54 | 294.42 | 308.42 | 313.5 | 1089.8 | 49.9 | 23.4 | 74.3 | 50.2 | 23.2 | 74.9 | 50.9 | Activity (Rattus norvegicus [21]): 23.8 ms; Activity (Rattus norvegicus [22]): 73.2 min; Activity (Rattus norvegicus [23]): 51.3 min; Activity (Rattus norvegicus [24]): 23.1 min; Activity (Rattus norvegicus [25]): 52.7 min; Activity (Rattus norvegicus [26]): 23.7 min; Activity (Rattus norvegicus [27]): 74.2 ms; Activity (Rattus norvegicus [28]): 92.99 mmHg; Activity (Rattus norvegicus [29]): 82.61 mmHg; Activity (Rattus norvegicus [30]): 73.87 mmHg; Activity (Rattus norvegicus [31]): 62.69 mmHg
